Laboratory results taken from patent publication US10111890B2, “9-aminomethyl minocycline compounds and uses thereof” (Paratek Pharmaceuticals, Inc., priority 2016, dated 2018).
Read-outs that look alike come from different tables or passages of the source.

Assays:
[1] = system: ABSSSI known or suspected to be due to Gram-positive pathogens; assay: Phase 3 oral omadacycline vs oral linezolid in ABSSSI: Early Clinical Response 48-72 hours after first dose; assay type: in vivo, human; settings: for Early Clinical Response: Clinical Failure / Early Clinical Response: Clinical Failure or Indeterminate / Early Clinical Response: Indeterminate / Early Clinical Response: Clinical Success: 48-72 hours; for Early Clinical Response: Clinical Failure / Early Clinical Response: Clinical Failure or Indeterminate / Early Clinical Response: Indeterminate / Early Clinical Response: Clinical Success / Difference (95% CI) in Early Clinical Success rate: mITT; for Early Clinical Success, %: 48-72 hours after first dose, micro-mITT, % of N1; for Difference (95% CI) in Early Clinical Success rate: omadacycline minus linezolid
[2] = Phase 1 multiple oral dose study: urine pharmacokinetics; assay type: in vivo, human; settings: for CL renal: human
Method: Urine samples were only collected from a subset of subjects because analysis of urine PK was added by an amendment to the study protocol after the study was already underway. […] Additional parameters […] Ae0-24 were also calculated.

SMILES: CN(C)c1cc(CNCC(C)(C)C)c(O)c2c1C[C@H]1C[C@H]3[C@H](N(C)C)C(O)=C(C(N)=O)C(=O)[C@@]3(O)C(O)=C1C2=O [Omadacycline, 9-[(2,2-dimethyl-propylamino)-methyl]-minocycline]
- Early Clinical Response: Clinical Failure ([1]; Major Abscess, as randomized): 1 (1.6) n (%)
- Early Clinical Response: Clinical Failure or Indeterminate ([1]; Major Abscess, as randomized): 4 (6.3) n (%)
- Early Clinical Response: Indeterminate ([1]; Major Abscess, as randomized): 3 (4.7) n (%)
- Early Clinical Response: Clinical Success ([1]; Major Abscess, type of infection as randomized): 60 (93.8) n (%)
- Early Clinical Response: Clinical Success ([1]; Wound Infection, actual type of infection): 187 (89.0) n (%)
- Early Clinical Response: Clinical Failure ([1]; Wound Infection, actual type): 17 (8.1) n (%)
- Early Clinical Response: Clinical Failure or Indeterminate ([1]; Wound Infection, actual type): 23 (11.0) n (%)
- Early Clinical Response: Indeterminate ([1]; Wound Infection, actual type): 6 (2.9) n (%)
- Early Clinical Response: Clinical Failure ([1]; Wound Infection, as randomized): 17 (7.9) n (%)
- Early Clinical Response: Clinical Failure or Indeterminate ([1]; Wound Infection, as randomized): 24 (11.2) n (%)
- Early Clinical Response: Indeterminate ([1]; Wound Infection, as randomized): 7 (3.3) n (%)
- Early Clinical Response: Clinical Success ([1]; Wound Infection, type of infection as randomized): 190 (88.8) n (%)
- Early Clinical Success, % ([1]; baseline pathogen Clostridium perfringens): (100.0) %
- Early Clinical Success, % ([1]; baseline pathogen Enterobacter cloacae): (100.0) %
- Early Clinical Success, % ([1]; baseline pathogen Enterococcus faecalis VSE): (85.7) %
- Early Clinical Success, % ([1]; baseline pathogen Enterococcus faecalis): (87.5) %
- Early Clinical Success, % ([1]; baseline pathogen Enterococcus faecium VSE): (100.0) %
- Early Clinical Success, % ([1]; baseline pathogen Enterococcus faecium): (100.0) %
- Early Clinical Success, % ([1]; baseline pathogen Escherichia coli): (100.0) %
- Early Clinical Success, % ([1]; baseline pathogen Finegoldia magna): (66.7) %
- Early Clinical Success, % ([1]; baseline pathogen Klebsiella pneumoniae): (80.0) %
- Early Clinical Success, % ([1]; baseline pathogen MRSA): (93.3) %
- Early Clinical Success, % ([1]; baseline pathogen MSSA): (84.2) %
- Early Clinical Success, % ([1]; baseline pathogen Prevotella denticola): (100.0) %
- Early Clinical Success, % ([1]; baseline pathogen Prevotella melaninogenica): (100.0) %
- Early Clinical Success, % ([1]; baseline pathogen Staphylococcus aureus): (88.2) %
- Early Clinical Success, % ([1]; baseline pathogen Staphylococcus lugdunensis): (80.0) %
- Early Clinical Success, % ([1]; baseline pathogen Streptococcus agalactiae): (50.0) %
- Early Clinical Success, % ([1]; baseline pathogen Streptococcus anginosus group): (94.7) %
- Early Clinical Success, % ([1]; baseline pathogen Streptococcus anginosus): (100.0) %
- Early Clinical Success, % ([1]; baseline pathogen Streptococcus constellatus): (88.9) %
- Early Clinical Success, % ([1]; baseline pathogen Streptococcus intermedius): (91.3) %
- Early Clinical Success, % ([1]; baseline pathogen Streptococcus mitis): (100.0) %
- Early Clinical Success, % ([1]; baseline pathogen Streptococcus pyogenes): (82.8) %
- Early Clinical Success, % ([1]; baseline pathogen Streptococcus viridans group): (100.0) %
- Difference (95% CI) in Early Clinical Success rate ([1]; Cellulitis/erysipelas, actual type): 1.7 (−10.8, 14.3)
- Difference (95% CI) in Early Clinical Success rate ([1]; Cellulitis/erysipelas, as randomized): 1.9 (−10.8, 14.5)
- Difference (95% CI) in Early Clinical Success rate ([1]; Major Abscess, actual type): 5.0 (−5.4, 16.2)
- Difference (95% CI) in Early Clinical Success rate ([1]; Major Abscess, as randomized): 5.0 (−5.4, 16.2)
- Difference (95% CI) in Early Clinical Success rate ([1]; Wound Infection, actual type): 6.3 (−0.3, 13.1)
- Difference (95% CI) in Early Clinical Success rate ([1]; Wound Infection, as randomized): 6.1 (−0.6, 12.8)
- Ae0-24, Mean (CV) ([2]; 300 mg, Day 1 (n = 2)): 20.37 (8.3) mg
- Fe0-24, Mean (CV) ([2]; 300 mg, Day 1 (n = 2)): 6.79 (8.3) %
- Ae0-24, Mean (CV) ([2]; 300 mg, Day 5 (n = 3)): 26.14 (14.6) mg
- Fe0-24, Mean (CV) ([2]; 300 mg, Day 5 (n = 3)): 8.71 (14.6) %
- Ae0-24, Mean (CV) ([2]; 450 mg, Day 1 (n = 3)): 25.06 (16.8) mg
- Fe0-24, Mean (CV) ([2]; 450 mg, Day 1 (n = 3)): 5.57 (16.8) %
- Ae0-24, Mean (CV) ([2]; 450 mg, Day 5 (n = 5)): 30.81 (33.0) mg
- Fe0-24, Mean (CV) ([2]; 450 mg, Day 5 (n = 5)): 6.85 (33.0) %
- Ae0-24, Mean (CV) ([2]; 600 mg, Day 1 (n = 1)): 31.96 mg
- Fe0-24, Mean (CV) ([2]; 600 mg, Day 1 (n = 1)): 5.33%
- Ae0-24, Mean (CV) ([2]; 600 mg, Day 5 (n = 4)): 51.82 (14.8) mg
- Fe0-24, Mean (CV) ([2]; 600 mg, Day 5 (n = 4)): 8.64 (14.8) %
- CL renal ([2]; in vivo, 300 mg, Day 1 (n = 2), read-out: CLr, Mean (CV) (converted)): 50.2 mL/min
- CL renal ([2]; in vivo, 300 mg, Day 5 (n = 3), read-out: CLr, Mean (CV) (converted)): 54.7 mL/min
- CL renal ([2]; in vivo, 450 mg, Day 1 (n = 3), read-out: CLr, Mean (CV) (converted)): 46.7 mL/min
- CL renal ([2]; in vivo, 450 mg, Day 5 (n = 5), read-out: CLr, Mean (CV) (converted)): 39.7 mL/min
- CL renal ([2]; in vivo, 600 mg, Day 1 (n = 1), read-out: CLr, Mean (CV) (converted)): 69.5 mL/min
- CL renal ([2]; in vivo, 600 mg, Day 5 (n = 4), read-out: CLr, Mean (CV) (converted)): 50.8 mL/min
- CL renal ([2]; urine, oral, all omadacycline dose groups, Day 1, read-out: Renal clearance (CLr)): 46.7 to 70 mL/min
- CL renal ([2]; urine, oral, all omadacycline dose groups, Day 5, read-out: Renal clearance (CLr)): 40 to 55 mL/min
